Measured values: patent EP3964206A1, “COMPOUNDS FOR THE TREATMENT OF COVID-19” (priority 2020, dated 2022)
Counter-ions that a name gives are not always drawn. Like-named read-outs stand apart in the source and are kept apart here.

Test system: SARS-CoV-2
Assay: microbe, parasite or virus in culture
Type: cell-based
Conditions: for Emax: read-out: Maximum confluence reached (%)
[1] = Severe acute respiratory syndrome coronavirus 2, 120 h

Row | Compound | Emax [1] [%] | IC50 [1] [µM] | Maximum confluence reached (%) | IC50 (read-out: IC50) [µM]
1 | CC[C@@H](C(=O)[C@@H](C)[C@@H](O)[C@H](C)[C@@H]1O[C@@H]([C@@H](CC)C(=O)O)CC[C@@H]1C)[C@H]1O[C@]2(C=C[C@@H](O)[C@]3(CC[C@@](C)([C@H]4CC[C@](O)(CC)[C@H](C)O4)O3)O2)[C@H](C)C[C@@H]1C [Compound 93, 2(R)-[6(R)-[5(R)-[(2S,5S,7R,9S,10S,12R,15R)-2-[5(R)-Ethyl-5-hydroxy-6(S)-methyltetrahydropyran-2(R)-yl]-15-hydroxy-2,10,12-trimethyl-1,6,8-trioxadispiro[4.1.5.3]pentadec-13-en-9-yl]-2(S)-hydroxy-1(S),3(S)-dimethyl-4-oxoheptyl]-5(S)-methyltetrahydropyran-2(R)-yl]butyric acid] | 34.4 |  |  | 
2 | CN1CCN(CCCN2c3ccccc3Sc3ccc(C(F)(F)F)cc32)CC1 [Compound 94, 10-[3-(4-Methylpiperazin-1-yl)propyl]-2-(trifluoromethyl)-10H-phenothiazine dihydrochloride] | 38 |  |  | 
3 | COc1cc2c(NC3CCN(C(C)C)CC3)nc(N3CCC(F)(F)CC3)nc2cc1OCCCN1CCCC1 [Compound 95, 2-(4,4-Difluoropiperidin-1-yl)-6-methoxy-N-[1-(propan-2-yl)piperidin-4-yl]-7-[3-(pyrrolidin-1-yl)propoxy]quinazolin-4-amine] | 31.1 |  |  | 
4 | CC(C)C(=O)OCC(=O)[C@@]12O[C@H](C3CCCCC3)O[C@@H]1C[C@H]1[C@@H]3CCC4=CC(=O)C=C[C@]4(C)[C@H]3[C@@H](O)C[C@@]12C [Compound 96, 16alpha,17alpha-[(R)-Cyclohexylmethylenedioxy]-11beta-hydroxy-21-(isobutyryloxy)pregna-1,4-dien-3-one] | 35.2 | 47 |  | 
5 | Nc1nc(NC[C@H]2CC[C@H](CNS(=O)(=O)c3cccc4ccccc34)CC2)nc2ccccc12 [Compound 97, N-[[trans-4-[[(4-Amino-2-quinazolinyl)amino]methyl]cyclohexyl]methyl]-1-naphthalenesulfonamide] | 39.2 |  |  | 
6 | CC[C@@]1([C@@H]2O[C@@H]([C@H]3O[C@@](O)(COC(=O)Nc4ccccc4)[C@H](C)C[C@@H]3C)C[C@@H]2C)CC[C@H]([C@]2(C)CC[C@]3(C[C@H](O)[C@@H](C)[C@@H]([C@@H](C)[C@@H](OC)[C@H](C)C(=O)O)O3)O2)O1 [Compound 98, 4(S)-[(2S,5R,7S,8R,9S)-2-[(2S,2'R,3'S,5R,5'R)-2-Ethyl-5'-[6(R)-hydroxy-3(S),5(R)-dimethyl-6-(phenylaminocarbonyloxymethyl)tetrahydropyran-2(S)-yl]-3'-methylperhydro-2,2'-bifuran-5-yl]-9-hydroxy-2,8-dimethyl-1,6-dioxaspiro[4.5]dec-7-yl]-3(R)-methoxy-2(S)-methylpentanoic acid sodium salt] | 38.2 | 3.18 |  | 
7 | CC(C)(C)c1cc(C=C(C#N)C#N)cc(Br)c1O [Compound 99, 2-(3-Bromo-5-tert-butyl-4-hydroxybenzylidene)propanedinitrile] | 37.3 | 7.23 |  | 
8 | O=C(Nc1ccc(Cl)cc1)Nc1ccc(Cl)c(Cl)c1 [Compound 100, 3-(4-Chlorofenil)-1-(3,4-diclorofenil)urea] | 47.2 |  |  | 
9 | Oc1c(Cl)cc(Cl)cc1Sc1cc(Cl)cc(Cl)c1O [Compound 102, 2,2'-Thio-bis(4,6-dichlorophenol)] | 31.2 |  |  | 
10 | CC(C)(C)c1cc(C=C(C#N)C#N)cc(C(C)(C)C)c1O [Compound 103, (3,5-Di-tert-butyl-4-hydroxybenzylidene)malononitrile] |  | 205 |  | 
11 | Nc1ccc(C(=O)Nc2cccc(-c3nc(N4CCOCC4)c4oc5ncccc5c4n3)c2)cn1 [Compound 104, 6-Amino-N-[3-[4-(4-morpholinyl)pyrido[3',2':4,5]furo[3,2-d]pyrimidin-2-yl]phenyl]pyridine-3-carboxamide] | 35.5 |  |  | 
12 | O=C(O)c1ccc(N2C(=O)C(=Cc3ccc(-c4ccc([N+](=O)[O-])cc4)o3)C=C2c2ccccc2)cc1 [Compound 105, 4-[3-[5-(4-Nitrophenyl)furan-2-ylmethylene]-2-oxo-5-phenyl-2,3-dihydro-1H-pyrrol-1-yl]benzoic acid] | 52.1 | 236 |  | 
13 | CCN(CC)Cc1cc(Nc2ccnc3cc(Cl)ccc23)ccc1O [Compound 106, 4-(7-Chloroquinolin-4-ylamino)-2-(diethylaminomethyl)phenol hydrochloride] | 37.5 | 21.5 |  | 
14 | CCN(CC)CCCCNc1ncc2cc(-c3c(Cl)cccc3Cl)c(NC(=O)NC(C)(C)C)nc2n1 [Compound 107, 1-tert-Butyl-3-[6-(2,6-dichlorophenyl)-2-[4-(diethylamino)butylamino]pyrido[2,3-d]pyrimidin-7-yl]urea] | 34.1 | 145 |  | 
15 | CC(C)C[C@H](NC(=O)CNC(=O)c1cc(Cl)ccc1Cl)B(O)O [Compound 108, 1(R)-[2-(2,5-Dichlorobenzamido)acetamido]-3-methylbutylboronic acid] | 30.8 | 135 |  | 
16 | CN1CCN(CC/C=C2/c3ccccc3Sc3ccc(S(=O)(=O)N(C)C)cc32)CC1 [Compound 109, (Z)-N,N-Dimethyl-9-[3-(4-methyl-1-piperazinyl)propylidene]thioxanthene-2-sulfonamide] | 36.5 |  |  | 
17 | CN(C)C(=O)C(CCN1CCC(O)(c2ccc(Cl)cc2)CC1)(c1ccccc1)c1ccccc1 [Compound 110, 4-[4-(4-Chlorophenyl)-4-hydroxypiperidin-1-yl]-N,N-dimethyl-2,2-diphenylbutyramide hydrochloride] | 34.4 |  |  | 
18 | (1R,2S,3R)-3-(6-Amino-9H-purin-9-yl)-1,2-cyclopentanediol [Compound 75] |  |  | 33.14 | 0.36
19 | (4R,4aS)-18-Ethenyl-4,4a-dihydro-3,4-bis(methoxycarbonyl)-4a,8,14,19-tetramethyl-24H,26H-benzo[b]porphine-9,13-dipropanoic acid monomethyl ester [Compound 39] |  |  | 89.5 | 30
